Measured values: PubChem BioAssay AID330 (DTP/NCI, 2004)
Where “and” joins values, the source holds several entries; their conditions need not be identical. Equal entries are not always repeated. Inconclusive results and toxic doses are left out.

Test system: P388 leukemia ip, CD2F1 mice, survival T/C
Assay: NCI In Vivo Anticancer Drug Screen. Data for tumor model P388 Leukemia (intraperitoneal) in CD2F1 (CDF1) mice
Details: endpoint: median survival time, higher = longer survival
Outline: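 Mice carrying the transplanted tumor received test compound or vehicle. Survival was recorded in each group, and the value is the treated-group measurement divided by that of the vehicle-treated control group.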

[1] = dose: 60.0 mg/kg/injection, schedule: Q01DX005 (ip), vehicle: saline with Tween-80
[2] = dose: 120.0 mg/kg/injection, schedule: Q01DX005 (ip), vehicle: saline with Tween-80
[3] = dose: 100.0 mg/kg/injection, schedule: Q04DX003 (ip), vehicle: saline with Tween-80
[4] = dose: 200.0 mg/kg/injection, schedule: Q04DX003 (ip), vehicle: saline with Tween-80
[5] = dose: 50.0 mg/kg/injection, schedule: Q01DX009 (ip), vehicle: saline with Tween-80
[6] = dose: 100.0 mg/kg/injection, schedule: Q01DX009 (ip), vehicle: saline with Tween-80
[7] = dose: 200.0 mg/kg/injection, schedule: Q01DX009 (ip), vehicle: saline with Tween-80
[8] = dose: 50.0 mg/kg/injection, schedule: Q01DX009 (ip), vehicle: Klucel (hydroxypropylcellulose) (HPC)
[9] = dose: 100.0 mg/kg/injection, schedule: Q01DX009 (ip), vehicle: Klucel (hydroxypropylcellulose) (HPC)

SMILES: CCO/C=C(/C#N)C(=O)OC
- T/C (dose: 100.0 mg/kg/injection, schedule: Q04DX002 (ip), vehicle: saline): 100 % of control
- T/C (dose: 200.0 mg/kg/injection, schedule: Q04DX002 (ip), vehicle: saline): 101 % of control
- T/C (dose: 400.0 mg/kg/injection, schedule: Q04DX002 (ip), vehicle: saline): 100 % of control

SMILES: CC(=O)Nc1ccc(/C=N/NC(=O)CNC(=O)c2ccccc2)cc1
- T/C [1]: 95 % of control
- T/C [2]: 86 % of control

SMILES: C=COC(=O)C(Cc1ccc(Cl)cc1)NC(=O)OCc1ccccc1 (centres undefined)
- T/C (dose: 100.0 mg/kg/injection, schedule: Q04DX002 (ip), vehicle: Klucel (hydroxypropylcellulose) (HPC)): 97 % of control
- T/C (dose: 200.0 mg/kg/injection, schedule: Q04DX002 (ip), vehicle: Klucel (hydroxypropylcellulose) (HPC)): 91 % of control
- T/C (dose: 400.0 mg/kg/injection, schedule: Q04DX002 (ip), vehicle: Klucel (hydroxypropylcellulose) (HPC)): 95 % of control

SMILES: O=C(O)C(CSC(c1ccccc1)(c1ccccc1)c1ccccc1)N=Cc1ccccc1O (centres undefined)
- T/C [3]: 168 % of control
- T/C (dose: 150.0 mg/kg/injection, schedule: Q04DX003 (ip), vehicle: saline with Tween-80): 190 % of control
- T/C [4]: 122 % of control

SMILES: CC1(NC(=O)C23CC4CC(CC(C4)C2)C3)CCC(C(C)(C)NC(=O)C23CC4CC(CC(C4)C2)C3)CC1 (centres undefined)
- T/C (dose: 50.0 mg/kg/injection, schedule: Q01DX005 (ip), vehicle: saline with Tween-80): 88 % of control
- T/C (dose: 100.0 mg/kg/injection, schedule: Q01DX005 (ip), vehicle: saline with Tween-80): 88 % of control
- T/C (dose: 200.0 mg/kg/injection, schedule: Q01DX005 (ip), vehicle: saline with Tween-80): 86 % of control

SMILES: CC(C)(CO)NC(=O)c1ccccc1Br
- T/C [5]: 100 % of control
- T/C [6]: 100 % of control
- T/C [7]: 99 % of control

SMILES: COC(=O)c1cc(C#N)n2ccc3ccccc3c12
- T/C [8]: 105 % of control
- T/C [9]: 104 % of control
- T/C (dose: 200.0 mg/kg/injection, schedule: Q01DX009 (ip), vehicle: Klucel (hydroxypropylcellulose) (HPC)): 94 % of control

SMILES: CCCn1cnc(C(=O)OC)c1O (tested in a mixture with another compound)
- T/C (dose: 100.0 mg/kg/injection, schedule: Q04DX002 (ip), vehicle: water): 101 % of control
- T/C (dose: 200.0 mg/kg/injection, schedule: Q04DX002 (ip), vehicle: water): 104 % of control
- T/C (dose: 400.0 mg/kg/injection, schedule: Q04DX002 (ip), vehicle: water): 101 % of control

SMILES: O=C1c2ccccc2CCC12OC2c1ccncc1 (centres undefined)
- T/C (dose: 25.0 mg/kg/injection, schedule: Q01DX009 (ip), vehicle: Klucel (hydroxypropylcellulose) (HPC)): 107 % of control
- T/C [8]: 110 % of control
- T/C [9]: 100 % of control

SMILES: NC(=O)c1c(N)ncnc1N
- T/C (dose: 12.5 mg/kg/injection, schedule: Q04DX002 (ip), vehicle: saline with Tween-80): 102 % of control
- T/C (dose: 25.0 mg/kg/injection, schedule: Q04DX002 (ip), vehicle: saline with Tween-80): 104 % of control
- T/C (dose: 50.0 mg/kg/injection, schedule: Q04DX002 (ip), vehicle: saline with Tween-80): 101 % of control

SMILES: Nc1cc(=O)[nH]c(N)n1
- T/C (dose: 6.25 mg/kg/injection, schedule: Q01DX009 (ip), vehicle: saline with Tween-80): 106 % of control
- T/C (dose: 12.5 mg/kg/injection, schedule: Q01DX009 (ip), vehicle: saline with Tween-80): 106 % of control
- T/C (dose: 25.0 mg/kg/injection, schedule: Q01DX009 (ip), vehicle: saline with Tween-80): 106 % of control
- T/C [5]: 104 % of control and 108 % of control
- T/C [6]: 107 % of control
- T/C [7]: 104 % of control

SMILES: C[C@H]1C(=O)OCN1C(=O)OCc1ccccc1
- T/C [1]: 100 % of control
- T/C [2]: 100 % of control
- T/C (dose: 240.0 mg/kg/injection, schedule: Q01DX005 (ip), vehicle: saline with Tween-80): 95 % of control

SMILES: O=C1N(CO)C2C(N1CO)N(CO)C(=O)N2CO (centres undefined)
- T/C (dose: 100.0 mg/kg/injection, schedule: Q04DX003 (ip), vehicle: saline): 109 % of control
- T/C (dose: 200.0 mg/kg/injection, schedule: Q04DX003 (ip), vehicle: saline): 118 % of control
- T/C (dose: 400.0 mg/kg/injection, schedule: Q04DX003 (ip), vehicle: saline): 118 % of control

SMILES: Cc1ccnc(NCCCCCCNc2nccc(C)n2)n1
- T/C [3]: 87 % of control
- T/C [4]: 98 % of control
- T/C (dose: 400.0 mg/kg/injection, schedule: Q04DX003 (ip), vehicle: saline with Tween-80): 91 % of control
